# Test results: patent US20060166900A1, “Salt of morphine-6-glucuronide” (CeNeS Limited, priority 2002, published 2006)
# Columns and labels:
# Assay type in all cases: physicochemical
# [1] = Stability indicating HPLC assay and related substances on storage (Example 3)
# Description: Assay (% w/w) and related substances determination
# (§1) Each test material was stored between 2-8*C prior to placing on stability. Each material was sub-divided into 900 mg aliquots, transferred to brown opaque HDPE plastic bottles and flushed with Argon prior to sealing. Sufficient samples were provided for each time point as well as spares for each storage condition. The samples were placed in appropriate incubators previously commissioned at storage conditions 25° C./60% RH, 40° C./75% RH and 60° C.
# Testing Procedures Test for Identity Content and Impurities
# Testing was performed in duplicate (2×25 mg) in accordance with a stability indicating HPLC assay method. The assay results were reported as M6G as is, M6G as the anhydrous, solvent free material and the anhydrous solvent free material corrected for the salt form using the relevant conversion factor.
# [2] = Colour of solution by visible spectrophotometry on storage (Example 3); conditions: 5% w/v solution in water
# Description: Colour of solution by UV spectrophotometry.
# as §1
# Colour by Visible Spectrophotometry
# A 5% w/v solution of test material was prepared in water and the absorbance measured at 420 nm in a 1 cm silica cell using a Unicam UV4 Visible/UV spectrophotometer.
# [3] = Water content by Karl Fisher analysis on storage (Example 3)
# Description: Water content (% w/w) by Karl Fisher analysis
# as §1
# Water Content by Karl Fisher Analysis
# Water content was determined in duplicate on an aliquot of equilibrated material (approximately 100 mg) using a Tritrino 720 KFS Titrator.
# [4] = Stability of M6G salts at room temperature over 6 years, HPLC; conditions: for Assay M6G corr.: content calculated as M6G derivative
# [5] = Visual appearance on storage (Example 3)
# Description: as §1
# The samples were stored for analysis according to the following table: […]
compound,measurement,setting,value
CN1CC[C@]23c4c5ccc(O)c4O[C@H]2[C@@H](O[C@@H]2O[C@H](C(=O)O)[C@@H](O)[C@H](O)[C@H]2O)C=C[C@H]3[C@H]1C5.Cl [Morphine-6-glucuronide hydrochloride],Known Related Substances HN33177,"[1]; 1 month, 25° C./60% RH",0.63%
same,Known Related Substances HN67003,"[1]; 1 month, 25° C./60% RH",0.38%
same,Known Related Substances HN75076,"[1]; 1 month, 25° C./60% RH",0.04%
same,Known Related Substances HN75083,"[1]; 1 month, 25° C./60% RH",0.03%
same,"M6G Assay, Anhydrous basis","[1]; 1 month, 25° C./60% RH",92.03 % w/w
same,"M6G Assay, As is basis","[1]; 1 month, 25° C./60% RH",79.21 % w/w
same,"M6G Assay, Corrected for the salt form","[1]; 1 month, 25° C./60% RH",99.30 % w/w
same,Total Known,"[1]; 1 month, 25° C./60% RH",1.08%
same,Total Related Substances,"[1]; 1 month, 25° C./60% RH",2.41%
same,Total Unknown,"[1]; 1 month, 25° C./60% RH",1.33%
same,Known Related Substances HN33177,"[1]; 1 month, 40° C./75% RH",0.41%
same,Known Related Substances HN67003,"[1]; 1 month, 40° C./75% RH",3.01%
same,Known Related Substances HN75076,"[1]; 1 month, 40° C./75% RH",0.34%
same,Known Related Substances HN75083,"[1]; 1 month, 40° C./75% RH",0.07%
same,Known Related Substances Morphine,"[1]; 1 month, 40° C./75% RH",0.08%
same,"M6G Assay, Anhydrous basis","[1]; 1 month, 40° C./75% RH",81.39 % w/w
same,"M6G Assay, As is basis","[1]; 1 month, 40° C./75% RH",69.13 % w/w
same,"M6G Assay, Corrected for the salt form","[1]; 1 month, 40° C./75% RH",87.81 % w/w
same,Total Known,"[1]; 1 month, 40° C./75% RH",3.91%
same,Total Related Substances,"[1]; 1 month, 40° C./75% RH",15.16%
same,Total Unknown,"[1]; 1 month, 40° C./75% RH",11.25%
same,Known Related Substances HN33177,"[1]; 1 month, 60° C.",0.12%
same,Known Related Substances HN67003,"[1]; 1 month, 60° C.",3.55%
same,Known Related Substances HN75076,"[1]; 1 month, 60° C.",0.55%
same,Known Related Substances HN75083,"[1]; 1 month, 60° C.",0.03%
same,Known Related Substances Morphine,"[1]; 1 month, 60° C.",0.46%
same,"M6G Assay, Anhydrous basis","[1]; 1 month, 60° C.",75.78 % w/w
same,"M6G Assay, As is basis","[1]; 1 month, 60° C.",65.73 % w/w
same,"M6G Assay, Corrected for the salt form","[1]; 1 month, 60° C.",81.76 % w/w
same,Total Known,"[1]; 1 month, 60° C.",4.71%
same,Total Related Substances,"[1]; 1 month, 60° C.",20.94%
same,Total Unknown,"[1]; 1 month, 60° C.",16.23%
same,Known Related Substances HN33177,"[1]; 3 months, 25° C./60% RH",0.50%
same,Known Related Substances HN67003,"[1]; 3 months, 25° C./60% RH",1.31%
same,Known Related Substances HN75083,"[1]; 3 months, 25° C./60% RH",0.03%
same,Known Related Substances Morphine,"[1]; 3 months, 25° C./60% RH",0.21%
same,"M6G Assay, Anhydrous basis","[1]; 3 months, 25° C./60% RH",87.71 % w/w
same,"M6G Assay, As is basis","[1]; 3 months, 25° C./60% RH",75.48 % w/w
same,"M6G Assay, Corrected for the salt form","[1]; 3 months, 25° C./60% RH",94.64 % w/w
same,Total Known,"[1]; 3 months, 25° C./60% RH",2.05%
same,Total Related Substances,"[1]; 3 months, 25° C./60% RH",9.52%
same,Total Unknown,"[1]; 3 months, 25° C./60% RH",7.47%
same,decrease in assay compared to initial,"[1]; 3 months, 25° C./60% RH",around 6%
same,Known Related Substances HN33177,"[1]; 3 months, 40° C./75% RH",0.07%
same,Known Related Substances HN67003,"[1]; 3 months, 40° C./75% RH",3.71%
same,Known Related Substances HN75076,"[1]; 3 months, 40° C./75% RH",1.67%
same,Known Related Substances HN75083,"[1]; 3 months, 40° C./75% RH",0.01%
same,Known Related Substances Morphine,"[1]; 3 months, 40° C./75% RH",1.55%
same,"M6G Assay, Anhydrous basis","[1]; 3 months, 40° C./75% RH",61.41 % w/w
same,"M6G Assay, As is basis","[1]; 3 months, 40° C./75% RH",51.00 % w/w
same,"M6G Assay, Corrected for the salt form","[1]; 3 months, 40° C./75% RH",66.26 % w/w
same,Total Known,"[1]; 3 months, 40° C./75% RH",7.01%
same,Total Unknown,"[1]; 3 months, 40° C./75% RH",51.57%
same,drop in assay compared to the initial values,"[1]; 3 months, 40° C./75% RH",approx 34%
same,Total Related Substances,"[1]; 3 months, 40° C./75% RH, hydrochloride",58.58%
same,Total Related Substances,"[1]; 3 months, 40° C./75% RH, listed as hydrochloride, hydrochloride",around 54.5%
same,stability assessment,[1]; 40° C./75% RH over 3 months (base also 60° C. over 1 month),least stable
same,Known Related Substances HN33177,[1]; Initial,0.63%
same,Known Related Substances HN67003,[1]; Initial,0.07%
same,Known Related Substances HN75076,[1]; Initial,0.01%
same,Known Related Substances HN75083,[1]; Initial,0.06%
same,"M6G Assay, Anhydrous basis",[1]; Initial,93.28 % w/w
same,"M6G Assay, As is basis",[1]; Initial,81.63 % w/w
same,"M6G Assay, Corrected for the salt form",[1]; Initial,100.65 % w/w
same,Total Known,[1]; Initial,0.77%
same,Total Related Substances,[1]; Initial,1.24%
same,Total Unknown,[1]; Initial,0.47%
same,overall stability comparison,[1]; overall review of Example 3 data,least stable
same,Colour,"[2]; 1 month, 25° C./60% RH",0.147 Abs@420 nm
same,Colour,"[2]; 1 month, 40° C./75% RH",0.444 Abs@420 nm
same,Colour,"[2]; 1 month, 60° C.",1.183 Abs@420 nm
same,Colour,"[2]; 3 months, 25° C./60% RH",0.253 Abs@420 nm
same,Colour,"[2]; 3 months, 40° C./75% RH",2.107 Abs@420 nm
same,Colour,[2]; Initial,0.059 Abs@420 nm
same,Moisture,"[3]; 1 month, 25° C./60% RH",5.10 % w/w
same,Moisture,"[3]; 1 month, 40° C./75% RH",6.24 % w/w
same,Moisture,"[3]; 1 month, 60° C.",4.44 % w/w
same,Moisture,"[3]; 3 months, 25° C./60% RH",6.06 % w/w
same,Moisture,"[3]; 3 months, 40° C./75% RH",9.02 % w/w
same,Moisture,[3]; Initial,4.31 % w/w
same,HN-33177,[4]; 0 years,0.3%
same,HN-75083,[4]; 0 years,<0.1%
same,Unknown related substances (sum area %),[4]; 0 years,<0.1 area %
same,Assay M6G corr.,[4]; 0 years,88.7%
same,HN-67002,[4]; 6 years at ambient temperature,1.3%
same,HN-67003,[4]; 6 years at ambient temperature,2.1%
same,Morphine,[4]; 6 years at ambient temperature,0.2%
same,Unknown related substances (sum area %),[4]; 6 years at ambient temperature,9.2 area %
same,Assay M6G corr.,[4]; 6 years at ambient temperature,74.8%
same,HN-33177,"[4]; 6 years at ambient temperature, hydrochloride",0.2%
same,HN-33177,"[4]; 6 years at ambient temperature, listed as M6G.HCl, hydrochloride",remained unchanged
same,peaks present in the chromatogram that cannot be identified by retention time,[4]; almost 6 years at room temperature,17
same,Appearance,"[5]; 1 month, 25° C./60% RH",White crystalline powder
same,Appearance,"[5]; 1 month, 40° C./75% RH",Slightly yellow crystalline powder
same,Appearance,"[5]; 1 month, 60° C.",Pale yellow crystalline powder
same,Appearance,"[5]; 3 months, 25° C./60% RH, hydrochloride",White crystalline powder
same,Appearance,"[5]; 3 months, 25° C./60% RH, listed as hydrochloride, hydrochloride",white crystalline solids
same,Appearance,"[5]; 3 months, 40° C./75% RH",Yellow crystalline powder
same,Appearance,[5]; Initial,White crystalline powder
